According to patent US7994185B2, “Benzene sulfonamide thiazole and oxazole compounds” (Glaxo Smith Kline LLC, priority 2008, dated 2011):
Where two headings read alike, the source gives them in different places.

Legend:
[1] = system: Human melanoma cancer cells (SK-MEL-28); assay: Cell growth inhibition assay (CellTiter-Glo), SK-MEL-28; type: cell-based
[2] = target: T1, BRAFV600E full-length (amino acids 2-766) (Homo sapiens, UniProt P15056, V600E); assay: B-Raf Accelerated MEK ATPase assay (BRAMA); type: biochemical; settings: categorized
T1 construct: His6-tagged BRAFV600E full-length (amino acids 2-766); His6; made in house; host or cells: baculovirus expression system (insect cells)
T1 sequence (P15056 2-766 V600E): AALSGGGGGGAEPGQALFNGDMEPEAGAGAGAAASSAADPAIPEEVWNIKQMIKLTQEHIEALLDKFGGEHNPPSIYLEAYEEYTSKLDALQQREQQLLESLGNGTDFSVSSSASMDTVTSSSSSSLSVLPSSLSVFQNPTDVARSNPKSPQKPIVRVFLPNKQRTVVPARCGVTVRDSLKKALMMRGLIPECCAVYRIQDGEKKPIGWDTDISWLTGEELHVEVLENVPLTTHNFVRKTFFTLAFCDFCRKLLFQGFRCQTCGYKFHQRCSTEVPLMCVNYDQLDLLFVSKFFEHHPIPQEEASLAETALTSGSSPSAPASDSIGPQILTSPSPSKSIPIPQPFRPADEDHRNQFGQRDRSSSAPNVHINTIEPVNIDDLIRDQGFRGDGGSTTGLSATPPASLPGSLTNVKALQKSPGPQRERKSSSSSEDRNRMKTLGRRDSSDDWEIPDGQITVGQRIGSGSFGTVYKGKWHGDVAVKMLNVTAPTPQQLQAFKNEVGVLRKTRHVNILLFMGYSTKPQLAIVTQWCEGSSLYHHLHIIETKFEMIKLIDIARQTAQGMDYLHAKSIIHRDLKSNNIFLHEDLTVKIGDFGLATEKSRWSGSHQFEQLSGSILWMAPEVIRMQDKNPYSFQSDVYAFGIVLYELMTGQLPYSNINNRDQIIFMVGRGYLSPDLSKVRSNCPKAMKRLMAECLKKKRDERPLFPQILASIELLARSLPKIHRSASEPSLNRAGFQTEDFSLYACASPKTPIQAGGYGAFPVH
Outline: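 Coupled-enzyme readout: ADP generated by MEK-mediated ATP hydrolysis, uncoupled from ERK phosphorylation, is linked to NADH oxidation through pyruvate kinase and lactate dehydrogenase.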

[3] = system: Human colon tumor cells (Colo205); assay: Cell growth inhibition assay (CellTiter-Glo), Colo205; type: cell-based
Procedure: Human colon tumor cells (Colo205) were cultured in RPMI (Mediatech 50-020-PB) containing 10% FBS and 1% penicillin-streptomycin.
The next day, compounds were diluted as follow: For 96-well assays, 13.5 μL of compound in DMSO were diluted using nine (9) serial 1:3 dilutions of 4.5 μL in 9 μL of DMSO. Medium (270 μL/well of RPMI with 10% FBS and 1% penicillin-streptomycin) was added to the plates. Aliquots (7 μL) were added to cells in the final assay giving a final DMSO concentration of 0.2%. For 384-well assays, 15 μL of compound in DMSO were diluted using nine (9) serial 1:3 dilutions of 5 μL in 10 μL of DMSO, followed by a further dilution of 5 μL of compound with 95 μL of medium, of which 2 μL were added to cells in the final assay giving a final DMSO concentration of 0.2%. Cells were incubated at 37° C., 5% CO2 for 3 days.
Total ATP was measured (as a surrogate estimate of cell number) using CellTiter-Glo® reagent (Promega G7571). Briefly, plates were removed from the incubator and allowed to equilibrate to room temperature for 30 minutes. CellTiter-Glo® (25 μL or 55 μL for 384-well or 96-well assays, respectively) reagent was added to each well and plates were shaken on an orbital plate shaker for 2 minutes. Plates were incubated without shaking for a further 30 minutes and read on an LJL Analyst GT reader in luminometer mode with an integration time of 0.5 seconds per well. Percent inhibition of cell growth was calculated relative to DMSO vehicle-treated control wells.

[4] = SK-MEL-28, 72 h, Table 3a, 3 days incubation, read-out: Activity in SK-MEL-28 Tumor Cells
[5] = SK-MEL-28, Table 3b, later runs, average for the one or more runs, categorized, read-out: IC50 for SK-MEL-28
[6] = B-Raf Activity, Table 1a, highest pIC50 for the one or more runs
[7] = B-Raf pIC50, Table 1b, later runs, average pIC50 for the one or more runs
[8] = COLO 205, 72 h, Table 2a, 3 days incubation, read-out: Activity in Colo205 Tumor Cells
[9] = COLO 205, Table 2b, later runs, average for the one or more runs, categorized, read-out: IC50 for Colo205
[10] = Table 1b, later runs, average pIC50 for the one or more runs, read-out: B-Raf pIC50 (converted)

Compound	IC50 [1, 4] [nM]	IC50 [1, 5] [nM]	IC50 [2, 6] [nM]	IC50 [2, 7] [nM]	IC50 [3, 8] [nM]	IC50 [3, 9] [nM]	IC50 [2, 10] [nM]
CC(C)(C)c1nc(-c2cccc(NS(=O)(=O)c3c(F)cccc3F)c2F)c(-c2ccnc(NC3CCS(=O)(=O)CC3)n2)s1 [Example 13, N-[3-(2-(1,1-Dimethylethyl)-5-{2-[(1,1-dioxidotetrahydro-2H-thiopyran-4-yl)amino]-4-pyrimidinyl}-1,3-thiazol-4-yl)-2-fluorophenyl]-2,6-difluorobenzenesulfonamide]	< 100	< 100	< 100	≤ 3.16	< 100	< 100	
CS(=O)(=O)CCNc1nccc(-c2sc(N3CCOCC3)nc2-c2cccc(NS(=O)(=O)c3c(F)cccc3F)c2F)n1 [Example 14, 2,6-Difluoro-N-{2-fluoro-3-[5-(2-{[2-(methylsulfonyl)ethyl]amino}-4-pyrimidinyl)-2-(4-morpholinyl)-1,3-thiazol-4-yl]phenyl}benzenesulfonamide]	< 100	< 100	< 100	≤ 3.16	< 100	< 100	
CS(=O)(=O)CCCNc1nccc(-c2sc(N3CCOCC3)nc2-c2cccc(NS(=O)(=O)c3c(F)cccc3F)c2F)n1 [Example 15, 2,6-Difluoro-N-{2-fluoro-3-[5-(2-{[3-(methylsulfonyl)propyl]amino}-4-pyrimidinyl)-2-(4-morpholinyl)-1,3-thiazol-4-yl]phenyl}benzenesulfonamide]	< 100	< 100	< 100	≤ 3.16	< 100	< 100	
CC(C)(C)c1nc(-c2ccc(F)c(NS(=O)(=O)c3c(F)cccc3F)c2)c(-c2ccnc(N[C@H]3CC[C@H](NS(C)(=O)=O)CC3)n2)s1 [Example 16, N-(5-{2-(1,1-Dimethylethyl)-5-[2-({trans-4 [(methylsulfonyl)amino]cyclohexyl}amino)-4-pyrimidinyl]-1,3-thiazol-4-yl}-2-fluorophenyl)-2,6-difluorobenzenesulfonamide]	< 100	< 100	< 100		< 100	< 100	3.16 to 31.6
CS(=O)(=O)N[C@H]1CC[C@H](Nc2nccc(-c3sc(N4CCCC4)nc3-c3cccc(NS(=O)(=O)c4c(F)cccc4F)c3)n2)CC1 [Example 17, 2,6-Difluoro-N-{3-[5-[2-({trans-4-[(methylsulfonyl)amino]cyclohexyl}amino)-4-pyrimidinyl]-2-(1-pyrrolidinyl)-1,3-thiazol-4-yl]phenyl}benzenesulfonamide]	< 100	< 100	< 100		< 100	< 100	3.16 to 31.6
CC(C)CNc1nccc(-c2sc(C3CCOCC3)nc2-c2cccc(NS(=O)(=O)c3c(F)cccc3F)c2Cl)n1 [Example 18, N-{2-Chloro-3-[5-{2-[(2-methylpropyl)amino]-4-pyrimidinyl}-2-(tetrahydro-2H-pyran-4-yl)-1,3-thiazol-4-yl]phenyl}-2,6-difluorobenzenesulfonamide]	< 100	< 100	< 100	≤ 3.16	< 100	< 100	
CC(C)CNc1nccc(-c2sc(C(C)(C)C)nc2-c2cccc(NS(=O)(=O)c3c(F)cccc3F)c2Cl)n1 [Example 19, N-[2-Chloro-3-(2-(1,1-dimethylethyl)-5-{2-[(2-methylpropyl)amino]-4-pyrimidinyl}-1,3-thiazol-4-yl)phenyl]-2,6-difluorobenzenesulfonamide]	< 100	< 100	< 100		< 100	< 100	3.16 to 31.6
CC(C)CNc1nccc(-c2sc(N3CCOCC3)nc2-c2cccc(NS(=O)(=O)c3c(F)cccc3F)c2Cl)n1 [Example 20, N-{2-Chloro-3-[5-{2-[(2-methylpropyl)amino]-4-pyrimidinyl}-2-(4-morpholinyl)-1,3-thiazol-4-yl]phenyl}-2,6-difluorobenzenesulfonamide]	< 100	< 100	< 100	≤ 3.16	< 100	< 100	
Nc1nccc(-c2sc(N3CCOCC3)nc2-c2cccc(NS(=O)(=O)c3c(F)cccc3F)c2Cl)n1 [Example 21, N-{3-[5-(2-Amino-4-pyrimidinyl)-2-(4-morpholinyl)-1,3-thiazol-4-yl]-2-chlorophenyl}-2,6-difluorobenzenesulfonamide]	100 to 1000	100 to 1000	< 100	≤ 3.16	100 to 1000	100 to 1000	
CC(C)CNc1nccc(-c2sc(N3CCOCC3)nc2-c2cccc(NS(=O)(=O)c3cc(F)ccc3F)c2Cl)n1 [Example 22, N-{2-Chloro-3-[5-{2-[(2-methylpropyl)amino]-4-pyrimidinyl}-2-(4-morpholinyl)-1,3-thiazol-4-yl]phenyl}-2,5-difluorobenzenesulfonamide]	< 100	< 100	< 100		< 100	< 100	3.16 to 31.6
CC(C)CNc1nccc(-c2sc(C(C)(C)C)nc2-c2cccc(NS(=O)(=O)c3cc(F)ccc3F)c2Cl)n1 [Example 23, N-[2-Chloro-3-(2-(1,1-dimethylethyl)-5-{2-[(2-methylpropyl)amino]-4-pyrimidinyl}-1,3-thiazol-4-yl)phenyl]-2,5-difluorobenzenesulfonamide]	100 to 1000	100 to 1000	< 100		100 to 1000	100 to 1000	3.16 to 31.6
O=S(=O)(Nc1cccc(-c2nc(N3CCOCC3)sc2-c2ccncn2)c1Cl)c1c(F)cccc1F [Example 27, N-{2-Chloro-3-[2-(4-morpholinyl)-5-(4-pyrimidinyl)-1,3-thiazol-4-yl]phenyl}-2,6-difluorobenzenesulfonamide]	100 to 1000	100 to 1000	< 100		100 to 1000	100 to 1000	3.16 to 31.6
Cc1nccc(-c2sc(N3CCOCC3)nc2-c2cccc(NS(=O)(=O)c3cc(F)ccc3F)c2Cl)n1 [Example 28, N-{2-Chloro-3-[5-(2-methyl-4-pyrimidinyl)-2-(4-morpholinyl)-1,3-thiazol-4-yl]phenyl}-2,5-difluorobenzenesulfonamide]	< 100	< 100	< 100		< 100	< 100	3.16 to 31.6
CC(C)c1nc(-c2ccc(F)c(NS(=O)(=O)c3ccc(F)cc3F)c2)c(-c2ccnc(NCCS(C)(=O)=O)n2)s1 [Example 29, 2,4-Difluoro-N-{2-fluoro-5-[2-(1-methylethyl)-5-(2-{[2-(methylsulfonyl)ethyl]amino}-4-pyrimidinyl)-1,3-thiazol-4-yl]phenyl}benzenesulfonamide]	100 to 1000	100 to 1000	< 100		100 to 1000	100 to 1000	3.16 to 31.6
CC(C)c1nc(-c2cccc(NS(=O)(=O)c3ccco3)c2)c(-c2ccnc(NCCS(C)(=O)=O)n2)s1 [Example 30, N-{3-[2-(1-Methylethyl)-5-(2-{[2-(methylsulfonyl)ethyl]amino}-4-pyrimidinyl)-1,3-thiazol-4-yl]phenyl}-2-furansulfonamide]	< 100	< 100	< 100	≤ 3.16	< 100	< 100	
